Experiments:
[1] = system: DSS induced acute colitis; assay: DSS induced acute colitis mouse model, EPM-301 versus EPM-302, Example 13; type: in vivo, C57BL/6 mice; conditions: 10 mg/kg
Procedure: Colitis was induced in 10 weeks old female C57BL/6 mice using dextran sodium sulphate (DSS). Mice were fed for 8 days with 2% (wt/vol) DSS in their drinking water. […] EPM-302 served as an additional control.
Weight loss was measured on days 1, 3, 5, 8, and 10.
Next, the mice were sacrificed and the length of their colons were measured.
Cytokine levels of IL-6 and TNFα were measured using ELISA kits (R&D Systems, USA). Colon TNFα (FIG. 19), blood IL-6 (FIG. 20), levels were lower in mice treated with CBDA-Me (EPM-301) as compared to EPM-302. Similarly, the MEICS score of EPM-301 treated subjects were also lower than EPM-302 treated subjects (FIG. 21). Representative photos of colonoscopy can be seen in FIG. 22A-22D.

[2] = biological target: T1, glucose transporter 2 (GLUT2) (Homo sapiens, UniProt P11168); assay: 2-NBDG glucose uptake in transfected HEK293t cells; type: cell-based; conditions: 50-0.1 μM tested
T1 construct: expressed in transfected cells; host or cells: HEK293t
T1 sequence (P11168 1-524): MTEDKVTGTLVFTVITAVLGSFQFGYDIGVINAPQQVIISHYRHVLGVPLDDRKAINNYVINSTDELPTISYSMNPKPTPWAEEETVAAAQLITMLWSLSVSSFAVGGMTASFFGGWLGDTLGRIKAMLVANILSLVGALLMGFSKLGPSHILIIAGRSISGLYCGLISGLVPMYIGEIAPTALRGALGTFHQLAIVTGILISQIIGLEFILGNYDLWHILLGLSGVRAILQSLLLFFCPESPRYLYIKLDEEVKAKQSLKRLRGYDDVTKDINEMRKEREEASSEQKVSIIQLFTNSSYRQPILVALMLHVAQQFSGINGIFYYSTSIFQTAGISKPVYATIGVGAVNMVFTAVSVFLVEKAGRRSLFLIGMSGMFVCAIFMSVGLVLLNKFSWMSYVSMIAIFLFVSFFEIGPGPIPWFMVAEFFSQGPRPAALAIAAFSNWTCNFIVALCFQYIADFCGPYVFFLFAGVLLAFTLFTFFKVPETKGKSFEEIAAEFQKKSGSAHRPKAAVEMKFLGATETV
Procedure: In vitro assays for measuring glucose uptake were designed to assess whether EPM-301 and EPM-302 compounds are capable of inhibiting or increasing glucose uptake via glucose transporters (GLUTs).
Transfected HEK293t cells, which express the glucose transporter 2 (GLUT2), were cultured in a 96 well plate and maintained at 37° C. in 5% CO2 in DMEM medium supplemented with 10% FCS, 2 mM 1-glutamine, 1 mM sodium pyruvate, 100 U/mL penicillin, and […] streptomycin for 24 h. The medium was then washed with a choline chloride Na^+-free buffer (CCB), in which only GLUTs (and not the sodium/glucose transporters [SGLTs]) were active. The wells were then added with CCB/CCB+2-NBDG (a fluorescent derivative of glucose). Compounds were tested in a range of concentrations for their ability to inhibit/increase 2-NBDG uptake into the cells. After 1.5 h incubation, cells were washed with CCB and incubated with 1 μg/μL of Hoechst for 15 mins at 37° C. and protected from light. Fluorescence was measured by the Cytation-3 plate reader at ex:485 nm/em:528 nm and ex:350 nm/em:461 nm for 2-NBDG Hoechst, respectively. Results of the 2-NBDG levels were normalized to Hoechst levels of each well, and presented as a change in the uptake of 2-NBDG in comparison with Vehicle-treated group.
Vehicle solution (choline chloride buffer), EPM-301 (50-0.1 μM), and EPM-302 (50-0.1 μM) were used for the experiments.
Values are expressed as mean±SEM. Unpaired two-tailed student's t-test was used to determine the differences between the groups. Significance was set at p<0.05. *versus vehicle; #versus control.

[3] = system: partial meniscectomy/ACL transection rat model of surgical induced osteoarthritis and pain induced incapacitance; assay: Weight bearing in rat meniscectomy model versus hyaluronate and corticosteroid, Example 6; type: in vivo
Procedure: Rats were allowed to acclimatize for 1 week, followed by assessment of their weight bearing preference using an incapacitance meter. Unilateral medical meniscectomy and anterior cruciate ligament […] (MMX/ACLT) surgery was performed on the right knee of a subject rat. Weight bearing preference was tested before and after surgery. After 2 weeks, treatments with both intra-articular (1) and. intra-peritoneal (6) administrations of EPM301 began in the EPM301 group. In the hyaluronate (HA) and corticosteroid (CS) groups, a single intra-articular injection was performed 2 weeks after model induction. Weight bearing preference was then assessed 4 and 7 days after the start of therapy.
Wistar Rats (HsdHan female rats 225-249 grams) were acquired from Envigo. The rats were evaluated using an incapacitance tester. They were tested pre-operation, one-week post-operation, two weeks post-operation, prior to injection, 4 and 7 days post injections.
EPM-301 was dissolved in a solution mixture of 1:1:18 EtOH:cremophor:seline to a final concentration of 3.5 mg/mL. Hyaluronic acid (Arthrease, 1% sodium hyaluronate) and Dexamethasone (kem Pharma, Venus, 72, Pol. Ind. Colom II, 08228 Terrassa, Barcelona) were acquired.
Intra-articular (i.a.) injection was carried out with 100 uL and intra-peritoneal (i.p.) injections were carried out with 150 uL. All were injected i.a. in the first day. EPM-301 was injected via i.p. administration on the first day, and for 5 additional days everyday via i.p. administration.
Student's t-test was performed at the last follow-up time to determine effect of the therapy as primary endpoint. The level of significance was 0.05 alpha. ANOVA was used to compare all time points, a post-hob analysis with the Scheffe all comparisons method was performed. Calculations were performed using the Analyze-it Excel add-on function.
The percentage of weight bearing was calculated as the amount of weight born (in grams) on the right hind limb divided by the amount of weight born on the left hind limb. This ratio was expressed as percentage weight bearing. Prior to operation the Rt/Lt weight bearing in both groups was similar. There were 4 animals in the EPM-301 treated group and 8 animals in each of the HA and CS treated groups, with a total of 20 tested subjects.

Compound	therapeutic effect [1]	concentration at which the effect on glucose transport was observed [2]	glucose uptake (2-NBDG) in HEK293 cells ([2]; 1.5 h incubation, versus vehicle (FIG. 36A, 36B))	Rt limb weight bearing ([3]; following injections, EPM-301 i.a. once plus i.p. 6 days, HA and CS single i.a. injection)	weight bearing ([3]; immediately prior to injection, two weeks following model induction (baseline before treatment))
CCCCCc1cc(O)c(C2C=C(C)CCC2C(C)C)c(O)c1C(=O)OC (centres unmarked) [EPM-302]	not enough to induce a therapeutic effect	all concentrations tested	significantly reduce	–	–
C[C@@H]1C[C@H]2[C@@H]3CCC4=CC(=O)C=C[C@]4(C)[C@@]3(F)[C@@H](O)C[C@]2(C)[C@@]1(O)C(=O)CO [CS, Dexamethasone, reference compound]	–	–	–	62.1%	52.5%

From patent US12403114B2, “Cannabinoid acid ester compositions and uses thereof” (EPM (IP), INC., priority 2019, dated 2025)
